Here are results for four compounds from BindingDB's records for doi:10.1016/j.bmcl.2005.03.008 (Abbott Laboratories, 2005).

This experiment deals with T1, Dimer of Gag-Pol polyprotein [489-587] (Human immunodeficiency virus 1, UniProt P12497).
T1 construct: 489-587
Description: Enzyme Inhibition Assay. The note with it: pH 4.5; 30 °C. On the procedure:
HIV-1 protease inhibition was measured by a fluorescence assay using recombinant HIV-1 protease. […] The percent inhibition of enzyme activity in the presence of inhibitor was determined by comparing inhibition rates with uninhibited control reactions. All IC50 values were determined with a range of inhibitor concentrations using the relation IC50 = (100/ percent inhibition - 1) x inhibitor concentration.
Broadly, the IC50 is the concentration needed to halve the response being measured. A lower IC50 goes with inhibition by little substance. The compound `Cc1nc(CN2CCN([C@H](C(=O)N[C@@H](Cc3ccccc3)[C@H](O)CN(CC(C)C)S(=O)(=O)c3cccc(CN=O)c3)C(C)C)C2=O)cs1` [(2S)-N-[(2S,3R)-3-hydroxy-4-({3-[(1E)-(hydroxyimino)methyl]benzene}(2-methylpropyl)sulfonamido)-1-phenylbutan-2-yl]-3-methyl-2-{3-[(2-methyl-1,3-thiazol-4-yl)methyl]-2-oxoimidazolidin-1-yl}butanamide] returned an IC50 of 0.016 µM.

As to `CO/N=C/c1ccc(S(=O)(=O)N(CC(C)C)C[C@@H](O)[C@H](Cc2ccccc2)NC(=O)[C@H](C(C)C)N2CCN(Cc3csc(C)n3)C2=O)cc1` [(2S)-N-[(2S,3R)-3-hydroxy-4-({4-[(1E)-(methoxyimino)methyl]benzene}(2-methylpropyl)sulfonamido)-1-phenylbutan-2-yl]-3-methyl-2-{3-[(2-methyl-1,3-thiazol-4-yl)methyl]-2-oxoimidazolidin-1-yl}butanamide], the half-inhibitory concentration (IC50) is 0.653 µM.

In the case of `Cc1nc(CN2CCN([C@H](C(=O)N[C@@H](Cc3ccccc3)[C@H](O)CN(CC(C)C)S(=O)(=O)c3ccc(CN=O)cc3)C(C)C)C2=O)cs1` [(2S)-N-[(2S,3R)-3-hydroxy-4-({4-[(1E)-(hydroxyimino)methyl]benzene}(2-methylpropyl)sulfonamido)-1-phenylbutan-2-yl]-3-methyl-2-{3-[(2-methyl-1,3-thiazol-4-yl)methyl]-2-oxoimidazolidin-1-yl}butanamide], the IC50 turned out to be 0.005 µM.

The compound `Cc1nc(CN2CCN([C@H](C(=O)N[C@@H](Cc3ccccc3)[C@H](O)CN(CC(C)C)S(=O)(=O)c3ccc(CO)cc3)C(C)C)C2=O)cs1` [(2S)-N-[(2S,3R)-3-hydroxy-4-{[4-(hydroxymethyl)benzene](2-methylpropyl)sulfonamido}-1-phenylbutan-2-yl]-3-methyl-2-{3-[(2-methyl-1,3-thiazol-4-yl)methyl]-2-oxoimidazolidin-1-yl}butanamide] showed an IC50 of 0.016 µM.
